Data: US10973744B2, “Conditioner composition comprising a chelant” (The Procter & Gamble Company, priority 2016, dated 2021)

Test: Measurement of copper on hair after shampoo / rinse-off conditioner / leave-on treatment regimen (ICP-OES)
Conditions: after 20 regimen cycles, compared to control conditioning shampoo/control rinse-off conditioner
Procedure: All testing are performed on colored hair switches (see Method of Measurement of copper on hair below) weighing approximately 4.0 grams and having a length of approximately 6 inches. The hair switches are commercially available from IHIP (International Hair Importers). Three hair switches per shampoo composition are used. An amount of […] of shampoo is spread via a syringe onto separate hair switch. That is, the dosage is 0.10 g of shampoo per g of hair. Each application consists of adding shampoo to the hair, milking for 30 seconds followed by rinsing for 30 seconds. Shampoo is then reapplied (0.1 g/g), milked for 30 seconds and rinsed for 30 seconds. Excess water is squeezed from the hair switches and left to air dry or treated with a rinse-off conditioner and/or a leave-on treatment composition. […]
In several cases during this inventigation, the rinse-off conditioner treatment is followed by hair treatment with a leave-on treatment composition. Specifically, the appropriate quantity of the leave-on treatment composition is uniformely sprayed or spread onto separate hair switches (dosage of 0.10 g of solution per g of hair). […]
Samples of 100 mg of hair were digested overnight with 2 ml of high purity concentrated nitric acid. […] Copper content of the hair switches was determined by inductively coupled plasma atomic spectroscopy (ICP-OES)). For each leg, 3 different samples were analyzed. […]

Structure (SMILES): NCCNCCNCCN [2,3-Triethylenetetramine]
- Removal of copper from hair (in words): effective removal of copper from hair
